Results as given in ChEMBL document CHEMBL3779887, “Robenidine Analogues as Gram-Positive Antibacterial Agents” (J Med Chem, 2016).
In brackets after ≈: the same amount, converted by molar mass. Activity calls are given as the source filed them. No cut-off for these calls is given here.

Assays:
Assay type in all cases: functional
Staphylococcus aureus = assay: Antibacterial activity against methicillin-resistant Staphylococcus aureus after 20 to 24 hrs
Enterococcus = assay: Antibacterial activity against vancomycin-resistant Enterococcus after 20 to 24 hrs
Pseudomonas aeruginosa = assay: Antibacterial activity against Pseudomonas aeruginosa ATCC 27853 after 20 to 24 hrs
Escherichia coli = assay: Antibacterial activity against Escherichia coli ATCC 25922 after 20 to 24 hrs

| SMILES | MIC (Staphylococcus aureus) [µM] | MIC (Enterococcus) [µM] | MIC (Pseudomonas aeruginosa) [µM] | MIC (Escherichia coli) [µM] | Activity (Escherichia coli) | Activity (Staphylococcus aureus) | Activity (Enterococcus) |
| --- | --- | --- | --- | --- | --- | --- | --- |
| N=C(N/N=C/C1CCCCC1)N/N=C/C1CCCCC1 | 408 (≈ 113 µg/mL) | 306 (≈ 84.9 µg/mL) |  |  |  |  |  |
| Cc1ccccc1/C=N/NC(=N)N/N=C/c1ccccc1C | 121 (≈ 35.5 µg/mL) | 61 (≈ 17.9 µg/mL) | > 400 | > 400 |  |  |  |
| N=C(N/N=C/c1ccc(SC(F)(F)F)cc1)N/N=C/c1ccc(SC(F)(F)F)cc1 | 96 (≈ 44.7 µg/mL) | 135 (≈ 62.8 µg/mL) | > 400 | > 400 |  |  |  |
| N=C(N/N=C/c1ccc(O)cc1O)N/N=C/c1ccc(O)cc1O | > 400 | > 400 | > 400 | > 400 |  |  |  |
| N=C(N/N=C/c1cccc(C(=O)O)c1)N/N=C/c1cccc(C(=O)O)c1 | > 400 | > 400 | > 400 | > 400 |  |  |  |
| N=C(N/N=C/c1cccnc1N)N/N=C/c1cccnc1N | > 400 | > 400 |  |  |  |  |  |
| N=C(N/N=C/c1ccc(/C=C/C(=O)O)cc1)N/N=C/c1ccc(/C=C/C(=O)O)cc1 | > 400 | > 400 | > 400 | > 400 |  |  |  |
| CC(C)c1ccc(/C=N/NC(=N)N/N=C/c2ccc(C(C)C)cc2)cc1 | 9.1 (≈ 3.18 µg/mL) | 13 (≈ 4.54 µg/mL) | > 400 | > 400 |  |  |  |
| C#Cc1ccc(/C=N/NC(=N)N/N=C/c2ccc(C#C)cc2)cc1 | > 400 | 17.2 (≈ 5.39 µg/mL) | > 400 | > 400 |  |  |  |
| CC/C(=N\NC(=N)N/N=C(\CC)c1ccc(Cl)cc1)c1ccc(Cl)cc1 | 56 (≈ 21.9 µg/mL) | 18.7 (≈ 7.3 µg/mL) |  |  | inactive |  |  |
| Cc1cccc(/C=N/NC(=N)N/N=C/c2cccc(C)c2)c1 | 24.4 (≈ 7.16 µg/mL) | 24.4 (≈ 7.16 µg/mL) | > 400 | > 400 |  |  |  |
| N=C(N/N=C/c1cnccc1Cl)N/N=C/c1cnccc1Cl | 172 (≈ 57.8 µg/mL) | 86 (≈ 28.9 µg/mL) |  |  |  |  |  |
| CC(=O)Nc1cc(Cl)ccc1/C=N/NC(=N)N/N=C/c1ccc(Cl)cc1NC(C)=O | > 400 | > 400 | > 400 | > 400 |  |  |  |
| CCCCc1ccc(/C=N/NC(=N)N/N=C/c2ccc(CCCC)cc2)cc1 | 232 (≈ 87.6 µg/mL) | 193 (≈ 72.9 µg/mL) | > 400 | > 400 |  |  |  |
| CN(C)c1ccc(/C=N/NC(=N)N/N=C/c2ccc(N(C)C)cc2O)c(O)c1 | 229 (≈ 87.8 µg/mL) | 76 (≈ 29.1 µg/mL) | > 400 | > 400 |  |  |  |
| COc1cc(Br)c(/C=N/NC(=N)N/N=C/c2cc(OC)c(OC)cc2Br)cc1OC | > 400 | > 400 | > 400 | > 400 |  |  |  |
| N=C(N/N=C/c1ccccc1Br)N/N=C/c1ccccc1Br | > 400 | > 400 | > 400 | > 400 |  |  |  |

| SMILES | MIC (Staphylococcus aureus) [µM] | MIC (Enterococcus) [µM] | MIC (Pseudomonas aeruginosa) [µM] | MIC (Escherichia coli) [µM] | Activity (Escherichia coli) | Activity (Staphylococcus aureus) | Activity (Enterococcus) |
| --- | --- | --- | --- | --- | --- | --- | --- |
| N=C(N/N=C/c1ccc2[nH]ccc2c1)N/N=C/c1ccc2[nH]ccc2c1 | 31.6 (≈ 10.9 µg/mL) | 42 (≈ 14.4 µg/mL) |  |  |  |  |  |
| N=C(N/N=C(\CN)c1ccccc1)N/N=C(\CN)c1ccccc1 | > 400 | > 400 |  |  | inactive |  |  |
| COc1cc(/C=N/NC(=N)N/N=C/c2cc(Br)c(OC)c(OC)c2)cc(Br)c1OC | > 400 | > 400 | > 400 | > 400 |  |  |  |
| CSc1ccc(/C=N/NC(=N)N/N=C/c2ccc(SC)cc2)cc1 | 61 (≈ 21.8 µg/mL) | 12.7 (≈ 4.54 µg/mL) | > 400 | > 400 |  |  |  |
| C/C(=N\NC(=N)N/N=C(\C)c1ccc(C)cc1)c1ccc(C)cc1 | 11.2 (≈ 3.6 µg/mL) | 8.4 (≈ 2.7 µg/mL) |  |  | inactive |  |  |
| COc1ccc(/C=N/NC(=N)N/N=C/c2ccc(OC)cc2)cc1 | > 400 | > 400 | > 400 | > 400 |  |  |  |
| N=C(N/N=C/C=C/c1ccccc1)N/N=C/C=C/c1ccccc1 | > 400 | > 400 |  |  |  |  |  |
| N=C(N/N=C/c1cnc2ccccc2n1)N/N=C/c1cnc2ccccc2n1 |  |  |  |  |  | inactive | inactive |
| COc1ccc(/C=N/NC(=N)N/N=C/c2ccc(OC)c(OC)c2)cc1OC | > 400 | > 400 | > 400 | > 400 |  |  |  |
| N=C(N/N=C/c1ccccc1)N/N=C/c1ccccc1 | > 400 | > 400 | > 400 | > 400 |  |  |  |
| N=C(N/N=C/c1cc(O)c(O)cc1O)N/N=C/c1cc(O)c(O)cc1O | 161 (≈ 58.2 µg/mL) | 322 (≈ 116 µg/mL) | > 400 | > 400 |  |  |  |
| N=C(N/N=C/c1ccncc1)N/N=C/c1ccncc1 | > 400 | > 400 |  |  |  |  |  |
| CCCC/C(=N\NC(=N)N/N=C(\CCCC)c1ccc(Cl)cc1)c1ccc(Cl)cc1 | > 400 | > 400 |  |  | inactive |  |  |
| N=C(N/N=C/C(=C/c1ccccc1)c1ccccc1)N/N=C/C(=C/c1ccccc1)c1ccccc1 | 61 (≈ 28.6 µg/mL) | > 400 |  |  |  |  |  |
| C/C(=N\NC(=N)N/N=C(\C)c1ccc(C(C)(C)C)cc1)c1ccc(C(C)(C)C)cc1 | 4.5 (≈ 1.83 µg/mL) | 36.2 (≈ 14.7 µg/mL) |  |  | inactive |  |  |
| N=C(N/N=C/c1ccc2ccccc2c1)N/N=C/c1ccc2ccccc2c1 | 239 (≈ 87.3 µg/mL) | 159 (≈ 58.1 µg/mL) |  |  |  |  |  |
